Literature values, collected in patent publication US11957779B2, “Agent for dyeing keratinous material, containing aminosilicone, pigment and polysaccharide” (Henkel AG & Co. KGaA, priority 2019, dated 2024).

Columns and labels:
[1] = 25° C.
[2] = 5% solution in water

CCN(Cc1cccc(S(=O)(=O)[O-])c1)c1ccc(C(=C2C=CC(=[N+](CC)Cc3cccc(S(=O)(=O)[O-])c3)C=C2)c2ccccc2S(=O)(=O)[O-])cc1.[Na+].[Na+] [Acid Blue 9]
solubility in water [1]: more than 20 wt. %

O=S(=O)([O-])c1ccc(N=Nc2c(O)ccc3ccccc23)cc1.[Na+] [Acid Orange 7, sodium salt of 4-[(2-hydroxy-1-naphthyl)azo]benzene sulphonate]
solubility in water [1]: more than 7 g/L

Nc1cc(S(=O)(=O)[O-])cc2cc(S(=O)(=O)[O-])c(N=Nc3ccccc3)c(O)c12.[Na+].[Na+] [Acid Red 33, diantrium salt of 5-amino-4-hydroxy-3-(phenylazo)-naphthalene-2,7-disulphonate]
solubility in water [1]: 2500 µg/mL

O=C([O-])c1c(Cl)c(Cl)c(Cl)c(Cl)c1-c1c2c(Br)cc(=O)c(Br)c-2oc2c(Br)c(O)cc(Br)c12.O=C([O-])c1c(Cl)c(Cl)c(Cl)c(Cl)c1-c1c2c(Br)cc(=O)c(Br)c-2oc2c(Br)c(O)cc(Br)c12.[Na+].[Na+] [Acid Red 92, disodium salt of 3,4,5,6-tetrachloro-2-(1,4,5,8-tetrabromo-6-hydroxy-3-oxoxanthen-9-yl)benzoic acid]
solubility in water [1]: greater than 10 g/L

O=C([O-])C1=NN(c2ccc(S(=O)(=O)[O-])cc2)C(=O)C1N=Nc1ccc(S(=O)(=O)[O-])cc1.[Na+].[Na+].[Na+] (stereo not drawn) [Acid Yellow 23, trisodium salt of 4,5-dihydro-5-oxo-1-(4-sulfophenyl)-4-((4-sulfophenyl)azo)-1H-pyrazole-3-carboxylic acid]
solubility in water (in words) [1]: highly soluble

O=P([O-])(O)O.[K+] [Potassium dihydrogen phosphate]
pH value [2]: about 4.4
